Data published in patent EP0115142B1, “Chroman compounds” (priority 1982, dated 1984).
Where a name gives a salt, the structure may show the parent alone. Marks after values point to notes of the source that are not given here.

What was measured:
[1] = system: Male Sprague-Dawley (HLA) rats; assay: Clonidine hypoactivity (CH) test; assay type: in vivo
Experimental: The suppression can be prevented by administration of an alpha2-antagonist as described by J. Malick et al. in Federation Proceedings, Vol. 40, page 244 (1981), a publication of the Federation of the American Societies of Experimental Biology. Male Sprague-Dawley (HLA) rats, weighing 140 to 180 g, were used throughout these studies. Spontaneous locomotor activity was measured in Animex activity monitors supplied by Columbus Instruments, Columbus, Ohio; groups of three animals were placed in a chamber of clear "Plexiglas", 26.5 x 26.5 x 15 cm for the test. ("Plexiglas" is a trademark of Rohm & Haas Co., Philadelphia, Pennsylvania, USA, for thermoplastic polymethyl methacrylate type polymers and plastic sheets). All animals received two injections prior to testing according to the following paradigm: vehiclec (HPMC) or antagonist was administered subcutaneously 30 minutes prior to intraperitoneal administration of either HPMC or clonidine. […] Animals were placed into the motor activity chambers as soon as possible after the second injection and total activity counts were recorded for 20 minutes. Five groups of 3 rats each were used for each dose of drug or control.

[2] = system: DBA-2 mice; assay: Audiogenic seizure (AS): reversal of clonidine protection; assay type: in vivo; details: for Minimal effective doses (MED) AS (i.p.): one hour before clonidine 0.4 mg/kg i.p., sound 30 minutes later, mice
Source text: Audiogenic Seizure (AS): Sound-produced seizures in mice are blocked by clonidine, an alpha2- agonist, and such a model may be used to measure the activity of a particular compound as an alpha2- antagonist, specifically as it decreases clonidine activity. The activity of clonidine in this regard and its relationship to alpha2-receptors is described by R. Horton et al. in the Journal of Pharmacology and Experimental Therapeutics, Vol. 214, No. 2, pages 437-442 (1980). DBA-2 mice (20-22 days of age; 8 to 12 g) are used in these studies. Mice are tested individually in a glass bell jar (112 inches high and 12 inches in diameter) which is placed in a sound-attenuated chamber. An electric bell is used to generate a noise level of 116-118 decibels. Mice are allowed to acclimate to the chamber for 30 seconds and are then exposed to the sound for 60 seconds. The auditory stimulation causes a convulsive episode characterized by wild running, clonus, tonus and death. […] Thus, the test compound is dissolved in a hydroxypropylmethylcellulose (HPMC) vehicle consisting of 0.1% Tween° 80 and 0.5% hydroxypropylmethylcellulose in an 0.9% by weight sodium chloride aqueous solution and injected intraperitoneally (i.p.) into the mouse. (Tween^O is a registered trademark of ICI Americas Inc., Wilmington, Delaware, USA, for emulsifiers, wetting and dispersing agents. Tween@ is polyoxyethylene sorbitan mono-oleate). After one hour, the mouse is challenged with clonidine intraperitoneally at 0.4 mg/kg of body weight. After a further 30 minutes, the mouse is subjected to a tone from a high intensity bell and the mouse is observed for seizure activity. The activity is scored on the basis of whether clonic and/or tonic seizures occur.

[3] = system: locus coeruleus; assay: Locus coeruleus test (single unit firing, clonidine reversal); assay type: in vivo, Male Sprague-Dawley rats; details: anesthetized rats; for clonidine required to re-suppress firing: after firing was reinstated by the test agent, i.v.; for dose that reinstated firing: i.v. infusion after clonidine 10 micrograms/kg i.v. suppressed firing
Experimental: Locus Coeruleus Test: The locus coeruleus test for alpha2-antagonist activity is predictive of anti- depressant activity as described by G. Engberg et al. in Communications in Psychopharmacology, Vol. 4, pages 233-239 (1980). The alphas-antagonistic properties of a test agent are determined as follows: Male Sprague-Dawley rats (280-320 g) are anesthetized with sodium pentobarbitol (60 mg/kg of body weight, i.p.) and placed in a stereotaxic instrument to allow precise location of the electrode in the locus coeruleus. Extracellular single unit activity is recorded from the locus coeruleus using stainless steel or tungsten microelectrodes (2-5 megohm impedance). Extracellular potentials are counted during successive 10 second intervals and recorded on a digital counter. The baseline firing rate of each neuron is determined for 3 to 5 minutes before drug administration. Drugs are injected intravenously in a volume of 0.1 ml; data are collected for 2 to 3 minutes between multiple drug injections. The ability of a test agent to reverse the suppressant effects of clonidine, and the total cumulative dose of clonidine required to override the test agent, are indicative of alpha2-antagonistic properties. In this test, 10 micrograms/kg of body weight of clonidine were administered by infusion intravenously to suppress firing.

[4] = target: T1, alpha2 binding site in human platelets (Homo sapiens, UniProt P08913); assay: Tritiated yohimbine binding assay
T1 construct: from tissue; host or cells: human platelets (washed and disrupted membrane preparation)
T1 sequence (P08913 1-465): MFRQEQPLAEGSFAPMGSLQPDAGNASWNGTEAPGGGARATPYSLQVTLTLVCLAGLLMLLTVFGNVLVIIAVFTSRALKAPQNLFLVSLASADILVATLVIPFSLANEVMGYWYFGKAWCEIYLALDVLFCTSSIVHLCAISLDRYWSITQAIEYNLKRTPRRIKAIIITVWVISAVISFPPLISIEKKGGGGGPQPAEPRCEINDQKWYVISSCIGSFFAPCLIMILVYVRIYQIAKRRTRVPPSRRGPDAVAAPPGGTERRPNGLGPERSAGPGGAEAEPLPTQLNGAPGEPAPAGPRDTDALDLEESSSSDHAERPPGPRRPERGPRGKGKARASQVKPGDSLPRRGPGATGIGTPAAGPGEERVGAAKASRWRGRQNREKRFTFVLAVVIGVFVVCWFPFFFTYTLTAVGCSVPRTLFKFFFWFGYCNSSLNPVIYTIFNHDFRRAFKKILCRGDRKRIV
Experimental: The test is conducted as described by M. Daiguji et al. in Life Sciences, Vol. 28, pages 2705-2717 (1981). Platelets are washed and disrupted as described in the Daiguji article. The amount of platelet used per assay varies between 0.2 to 1.5 mg of protein. […] For the determination of non-specific binding, 20 microliters of 10 millimolar norepinephrine is used. The incubation is conducted at 25°C for 60 minutes, after which the membranes are filtered under vacuum on a GF/B filter. The filters are then counted in a scintillation counter. […] It is known that if an alpha2-agonist or alpha2-antagonist binds to alpha2 sites, such will be displaced more easily by a compound which is also of the same type, i.e., an agonist or antagonist, respectively.

[5] = system: mouse; assay: Mouse learned helplessness swimming test (MLHS); assay type: in vivo; details: one hour before test, time in tonic immobility
Experimental: During testing, a mouse is gently placed in the water and tested for a total of 6 minutes as follows: during the first 2 minutes the animal quickly "learns" there is no escape and spends the vast majority of the last 4 minutes floating (tonic immobility). Nothing is recorded during the first 2 minutes (learning period) but the time in seconds spent in tonic immobility during the last 4 minutes of the session is recorded. […] Control (vehicle-treated) groups are run each day and drug-treated groups are compared to these via a Student's t-test.

## Clc1cccc(Cl)c1N=C1NCCN1 [Clonidine, reference compound]
[1]; i.p., rats, pilot studies
  lowest dose that consistently produced a statistically significant reduction in motor activity: 0.01 mg/kg of body weight
[2]; 0.4 mg/kg of body weight, i.p., 30 minutes prior to auditory stimulation
  mice protected from audiogenic seizures: 100%

## c1ccc2c(c1)OCC(C1=NCCN1)O2 (centres unmarked) [RX 781094, 2-[2-(1,4-benzodioxanyl)]-22imidazoline hydrochloride, reference compound]
[1]; s.c., 30 minutes before clonidine 0.01 mg/kg i.p., rats, activity counts for 20 minutes
  Minimal effective doses (MED) CH (s.c.): 0.03 mg/kg of body weight
[2]
  Minimal effective doses (MED) AS (i.p.): 2.5 mg/kg of body weight

## COC(=O)[C@@H]1[C@H]2C[C@H]3c4[nH]c5ccccc5c4CCN3C[C@@H]2CC[C@@H]1O [yohimbine, reference compound]
[3]
  clonidine required to re-suppress firing: 160 micrograms/kg of body weight
  dose that reinstated firing: 2.0 mg/kg of body weight

## Fc1cccc2c1OC(C1=NCCN1)CC2 (centres unmarked) [Example 3e, 2-(2-Imidazolin-2-yl)-8-fluorochroman]
[4]
  IC50: 53.5 nM
[2]
  Minimal effective doses (MED) AS (i.p.): ~3* mg/kg of body weight
[5]
  Minimal effective doses (MED) MLHS (i.p.): 30 mg/kg of body weight

## c1ccc2c(c1)CCC(C1=NCCN1)O2 (centres unmarked) [Example 1c, 2-(2-Imidazolin-2-yl)chroman]
[4]
  IC50: 34 nM
[1]; rat, in vivo
  Minimal effective doses (MED) CH (s.c.): 0.3 mg/kg of body weight
[2]
  Minimal effective doses (MED) AS (i.p.): 5 mg/kg of body weight
[3]
  clonidine required to re-suppress firing: 1280 micrograms/kg of body weight
  dose that reinstated firing: reinstated firing at the same level
[5]
  Minimal effective doses (MED) MLHS (i.p.): 10 mg/kg of body weight

## Fc1cccc2c1CCC(C1=NCCN1)O2 (centres unmarked) [Example 2e, 2-(2-Imidazolin-2-yl)-5-fluorochroman]
[4]
  IC50: 3.8 nM
[1]; rat, in vivo
  Minimal effective doses (MED) CH (s.c.): 0.5 mg/kg of body weight
[2]
  Minimal effective doses (MED) AS (i.p.): 1 mg/kg of body weight
[3]
  dose that reinstated firing: reinstated firing at the same level
[5]
  Minimal effective doses (MED) MLHS (i.p.): 30 mg/kg of body weight
